Test results reported in the supplement of paper PMC10307832.

What was measured:
Test in all cases: relative viability (nuclei count vs DMSO), 5 days (fraction); higher = more cells survive
NCI-H23 = system: NCI-H23
Summary of the method: (§1)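 Relative viability was taken as the ratio of nuclei in treated wells to nuclei in vehicle wells. Lung cancer cell lines in 1536-well plates received compounds by pin tool one day after seeding, either one drug alone or a fixed anchor-drug dose plus five library-drug doses (not always all listed) in √10 steps. Nuclei were counted on 4× images after 5 days of treatment, and values are medians of duplicate plates.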

NCI-H727 = system: NCI-H727
Summary of the method: as §1

NCI-H1993 = system: NCI-H1993
Summary of the method: as §1

NCI-H2126 = system: NCI-H2126
Summary of the method: as §1

NCI-H647 = system: NCI-H647
Summary of the method: as §1

NCI-H2023 = system: NCI-H2023
Summary of the method: as §1

EMC-BAC-2 = system: EMC-BAC-2
Summary of the method: as §1

NCI-H650 = system: NCI-H650
Summary of the method: as §1

HARA = system: HARA
Summary of the method: as §1

NCI-H2347 = system: NCI-H2347
Summary of the method: as §1

HCC-44 = system: HCC-44
Summary of the method: as §1

LCLC-103H = system: LCLC-103H
Summary of the method: as §1

NCI-H522 = system: NCI-H522
Summary of the method: as §1

LOU-NH91 = system: LOU-NH91
Summary of the method: as §1

NCI-H838 = system: NCI-H838
Summary of the method: as §1

NCI-H1666 = system: NCI-H1666
Summary of the method: as §1

NCI-H2087 = system: NCI-H2087
Summary of the method: as §1

NCI-H3122 = system: NCI-H3122
Summary of the method: as §1

NCI-H2009 = system: NCI-H2009
Summary of the method: as §1

BEN = system: BEN
Summary of the method: as §1

NCI-H1395 = system: NCI-H1395
Summary of the method: as §1

201T = system: 201T
Summary of the method: as §1

NCI-H441 = system: NCI-H441
Summary of the method: as §1

Clc1ccc(Nc2nnc(Cc3ccncc3)c3ccccc23)cc1 [Vatalanib] + CC(=O)c1c(C)c2cnc(Nc3ccc(N4CCNCC4)cn3)nc2n(C2CCCC2)c1=O [Palbociclib] (partner 0.5 µM)
relative viability (NCI-H23; first compound 0.04 µM): 0.469 | relative viability (NCI-H23; first compound 0.1265 µM): 0.435 | relative viability (NCI-H23; first compound 0.4 µM): 0.533 | relative viability (NCI-H23; first compound 1.265 µM): 0.473 | relative viability (NCI-H23; first compound 4 µM): 0.468 | relative viability (NCI-H727; first compound 0.1265 µM): 0.611 | relative viability (NCI-H727; first compound 0.4 µM): 0.683 | relative viability (NCI-H727; first compound 1.265 µM): 0.66 | relative viability (NCI-H727; first compound 4 µM): 0.638 | relative viability (NCI-H1993; first compound 0.04 µM): 0.872 | relative viability (NCI-H1993; first compound 0.1265 µM): 0.653 | relative viability (NCI-H1993; first compound 0.4 µM): 0.814 | relative viability (NCI-H1993; first compound 1.265 µM): 0.562 | relative viability (NCI-H1993; first compound 4 µM): 0.528 | relative viability (NCI-H2126; first compound 0.04 µM): 0.314 | relative viability (NCI-H2126; first compound 0.1265 µM): 0.34 | relative viability (NCI-H2126; first compound 0.4 µM): 0.383 | relative viability (NCI-H2126; first compound 1.265 µM): 0.335 | relative viability (NCI-H2126; first compound 4 µM): 0.363 | relative viability (NCI-H647; first compound 0.04 µM): 0.415 | relative viability (NCI-H647; first compound 0.1265 µM): 0.34 | relative viability (NCI-H647; first compound 0.4 µM): 0.37 | relative viability (NCI-H647; first compound 1.265 µM): 0.37 | relative viability (NCI-H647; first compound 4 µM): 0.386 | relative viability (NCI-H2023; first compound 0.04 µM): 0.375 | relative viability (NCI-H2023; first compound 0.1265 µM): 0.344 | relative viability (NCI-H2023; first compound 0.4 µM): 0.439 | relative viability (NCI-H2023; first compound 1.265 µM): 0.393 | relative viability (NCI-H2023; first compound 4 µM): 0.366 | relative viability (EMC-BAC-2; first compound 0.04 µM): 0.545 | relative viability (EMC-BAC-2; first compound 0.1265 µM): 0.524 | relative viability (EMC-BAC-2; first compound 0.4 µM): 0.563 | relative viability (EMC-BAC-2; first compound 4 µM): 0.512 | relative viability (NCI-H650; first compound 0.04 µM): 0.308 | relative viability (NCI-H650; first compound 0.1265 µM): 0.316 | relative viability (NCI-H650; first compound 0.4 µM): 0.298 | relative viability (NCI-H650; first compound 1.265 µM): 0.32 | relative viability (NCI-H650; first compound 4 µM): 0.32 | relative viability (HARA; first compound 0.04 µM): 0.227 | relative viability (HARA; first compound 0.1265 µM): 0.361 | relative viability (HARA; first compound 0.4 µM): 0.224 | relative viability (HARA; first compound 1.265 µM): 0.244 | relative viability (HARA; first compound 4 µM): 0.238 | relative viability (NCI-H2347; first compound 0.04 µM): 0.428 | relative viability (NCI-H2347; first compound 0.1265 µM): 0.423 | relative viability (NCI-H2347; first compound 0.4 µM): 0.494 | relative viability (NCI-H2347; first compound 1.265 µM): 0.418 | relative viability (NCI-H2347; first compound 4 µM): 0.446 | relative viability (HCC-44; first compound 0.04 µM): 0.922 | relative viability (HCC-44; first compound 0.1265 µM): 0.981 | relative viability (HCC-44; first compound 0.4 µM): 0.913 | relative viability (HCC-44; first compound 1.265 µM): 0.955 | relative viability (HCC-44; first compound 4 µM): 0.959 | relative viability (LCLC-103H; first compound 0.04 µM): 0.506 | relative viability (LCLC-103H; first compound 0.1265 µM): 0.452 | relative viability (LCLC-103H; first compound 0.4 µM): 0.503 | relative viability (LCLC-103H; first compound 1.265 µM): 0.443 | relative viability (LCLC-103H; first compound 4 µM): 0.513 | relative viability (NCI-H522; first compound 0.04 µM): 0.872 | relative viability (NCI-H522; first compound 0.1265 µM): 1.06 | relative viability (NCI-H522; first compound 0.4 µM): 1.18 | relative viability (NCI-H522; first compound 1.265 µM): 1.06 | relative viability (NCI-H522; first compound 4 µM): 0.993 | relative viability (LOU-NH91; first compound 0.04 µM): 0.549 | relative viability (LOU-NH91; first compound 0.1265 µM): 0.483 | relative viability (LOU-NH91; first compound 0.4 µM): 0.542 | relative viability (LOU-NH91; first compound 1.265 µM): 0.457 | relative viability (LOU-NH91; first compound 4 µM): 0.55 | relative viability (NCI-H838; first compound 0.04 µM): 0.227 | relative viability (NCI-H838; first compound 0.1265 µM): 0.235 | relative viability (NCI-H838; first compound 0.4 µM): 0.218 | relative viability (NCI-H838; first compound 1.265 µM): 0.203 | relative viability (NCI-H838; first compound 4 µM): 0.215 | relative viability (NCI-H1666; first compound 0.04 µM): 0.646 | relative viability (NCI-H1666; first compound 0.1265 µM): 0.624 | relative viability (NCI-H1666; first compound 0.4 µM): 0.643 | relative viability (NCI-H1666; first compound 1.265 µM): 0.616 | relative viability (NCI-H1666; first compound 4 µM): 0.667 | relative viability (NCI-H2087; first compound 0.04 µM): 0.251 | relative viability (NCI-H2087; first compound 0.1265 µM): 0.209 | relative viability (NCI-H2087; first compound 0.4 µM): 0.205 | relative viability (NCI-H2087; first compound 1.265 µM): 0.268 | relative viability (NCI-H2087; first compound 4 µM): 0.22 | relative viability (NCI-H3122; first compound 0.04 µM): 0.163 | relative viability (NCI-H3122; first compound 0.1265 µM): 0.213 | relative viability (NCI-H3122; first compound 0.4 µM): 0.195 | relative viability (NCI-H3122; first compound 1.265 µM): 0.237 | relative viability (NCI-H3122; first compound 4 µM): 0.182 | relative viability (NCI-H2009; first compound 0.04 µM): 0.245 | relative viability (NCI-H2009; first compound 0.1265 µM): 0.203 | relative viability (NCI-H2009; first compound 0.4 µM): 0.249 | relative viability (NCI-H2009; first compound 1.265 µM): 0.24 | relative viability (NCI-H2009; first compound 4 µM): 0.213 | relative viability (BEN; first compound 0.04 µM): 0.474 | relative viability (BEN; first compound 0.1265 µM): 0.456 | relative viability (BEN; first compound 0.4 µM): 0.948 | relative viability (BEN; first compound 1.265 µM): 0.489 | relative viability (BEN; first compound 4 µM): 0.489 | relative viability (NCI-H1395; first compound 0.04 µM): 0.654 | relative viability (NCI-H1395; first compound 0.1265 µM): 0.622 | relative viability (NCI-H1395; first compound 0.4 µM): 0.631 | relative viability (NCI-H1395; first compound 4 µM): 0.568 | relative viability (201T; first compound 0.04 µM): 0.777 | relative viability (201T; first compound 0.1265 µM): 0.344 | relative viability (201T; first compound 0.4 µM): 0.348 | relative viability (201T; first compound 1.265 µM): 0.341 | relative viability (201T; first compound 4 µM): 0.332 | relative viability (NCI-H441; first compound 0.04 µM): 0.223 | relative viability (NCI-H441; first compound 0.1265 µM): 0.194 | relative viability (NCI-H441; first compound 0.4 µM): 0.253 | relative viability (NCI-H441; first compound 1.265 µM): 0.194 | relative viability (NCI-H441; first compound 4 µM): 0.223
